Laboratory results published in ChEMBL document CHEMBL4813911 (J Med Chem, 2020).
One block for each compound: values may come before it.

Legend:
HeLa = test: Antiproliferative activity against human HeLa cells after 48 hrs by MTT assay; format: functional
HCT-116 = test: Antiproliferative activity against human HCT116 cells after 48 hrs by MTT assay; format: functional
PC-3 = test: Antiproliferative activity against human PC-3 cells after 48 hrs by MTT assay; format: functional
KYSE-150 cell line = test: Antiproliferative activity against human KYSE150 cells after 48 hrs by MTT assay; format: functional
SH-SY5Y = test: Antiproliferative activity against human SH-SY5Y cells after 48 hrs by MTT assay; format: functional
[1] = biological target: T1, Amine oxidase [flavin-containing] A (Homo sapiens, UniProt P21397); test: Inhibition of MAO-A (unknown origin) preincubated for 20 mins using 5-hydroxytryptamine as substrate followed by substrate addition and measured after 60 mins
T1 sequence (P21397 whole entry): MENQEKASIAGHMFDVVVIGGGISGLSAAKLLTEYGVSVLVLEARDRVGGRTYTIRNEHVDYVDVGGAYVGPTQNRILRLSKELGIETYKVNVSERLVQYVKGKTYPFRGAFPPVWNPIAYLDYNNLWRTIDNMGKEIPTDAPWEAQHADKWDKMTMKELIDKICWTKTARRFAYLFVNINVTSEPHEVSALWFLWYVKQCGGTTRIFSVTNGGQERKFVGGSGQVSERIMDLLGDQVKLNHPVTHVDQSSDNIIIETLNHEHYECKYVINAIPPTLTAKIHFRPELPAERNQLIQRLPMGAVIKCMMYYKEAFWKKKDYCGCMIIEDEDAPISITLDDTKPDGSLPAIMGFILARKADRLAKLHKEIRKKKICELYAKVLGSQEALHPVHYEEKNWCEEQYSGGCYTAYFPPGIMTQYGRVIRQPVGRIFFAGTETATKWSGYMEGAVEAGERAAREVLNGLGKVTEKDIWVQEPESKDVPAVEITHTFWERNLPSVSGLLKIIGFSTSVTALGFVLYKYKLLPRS

[2] = biological target: T2, Amine oxidase [flavin-containing] B (Homo sapiens, UniProt P27338); test: Inhibition of MAO-B (unknown origin) using benzylamine as substrate preincubated for 20 mins followed by substrate addition and measured after 60 mins
T2 sequence (P27338 whole entry): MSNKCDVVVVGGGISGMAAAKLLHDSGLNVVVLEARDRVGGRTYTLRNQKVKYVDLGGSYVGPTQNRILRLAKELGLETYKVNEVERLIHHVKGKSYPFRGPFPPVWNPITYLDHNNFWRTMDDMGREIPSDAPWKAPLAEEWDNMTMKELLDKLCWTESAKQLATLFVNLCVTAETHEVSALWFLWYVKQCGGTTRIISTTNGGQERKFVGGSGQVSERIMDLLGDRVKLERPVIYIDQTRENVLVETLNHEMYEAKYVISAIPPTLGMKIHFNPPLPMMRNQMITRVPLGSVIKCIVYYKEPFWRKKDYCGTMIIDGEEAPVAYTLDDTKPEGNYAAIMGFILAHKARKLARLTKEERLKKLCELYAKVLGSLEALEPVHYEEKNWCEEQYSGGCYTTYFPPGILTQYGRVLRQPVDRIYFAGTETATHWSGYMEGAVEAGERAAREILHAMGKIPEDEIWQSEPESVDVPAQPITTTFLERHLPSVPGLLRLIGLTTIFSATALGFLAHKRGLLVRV

MV4-11 [3] = test: Antiproliferative activity against human MV4-11 cells incubated for 6 days by MTS assay; format: functional, cell-based; settings: MV4-11, 144 h
[4] = biological target: T1, Amine oxidase [flavin-containing] A; test: Inhibition of human MAO-A expressed in baculovirus infected BTI insect cells by fluorescence method
[5] = biological target: T2, Amine oxidase [flavin-containing] B; test: Inhibition of human MAO-B expressed in baculovirus infected BTI insect cells by fluorescence method
[6] = biological target: T3, Lysine-specific histone demethylase 1A (Homo sapiens, UniProt O60341); test: Inhibition of human LSD1 (172 to 833 residues) using Lys4-dimethylated H3 (1-20) peptide as substrate incubated for 30 mins by peroxidase-coupled assay
[7] = biological target: T4, Lysine-specific histone demethylase 2 (Homo sapiens, UniProt Q8NB78); test: Inhibition of LSD2 (unknown origin) using Lys4-dimethylated H3 (1-20) peptide as substrate incubated for 30 mins by peroxidase-coupled assay
T4 sequence (Q8NB78 whole entry): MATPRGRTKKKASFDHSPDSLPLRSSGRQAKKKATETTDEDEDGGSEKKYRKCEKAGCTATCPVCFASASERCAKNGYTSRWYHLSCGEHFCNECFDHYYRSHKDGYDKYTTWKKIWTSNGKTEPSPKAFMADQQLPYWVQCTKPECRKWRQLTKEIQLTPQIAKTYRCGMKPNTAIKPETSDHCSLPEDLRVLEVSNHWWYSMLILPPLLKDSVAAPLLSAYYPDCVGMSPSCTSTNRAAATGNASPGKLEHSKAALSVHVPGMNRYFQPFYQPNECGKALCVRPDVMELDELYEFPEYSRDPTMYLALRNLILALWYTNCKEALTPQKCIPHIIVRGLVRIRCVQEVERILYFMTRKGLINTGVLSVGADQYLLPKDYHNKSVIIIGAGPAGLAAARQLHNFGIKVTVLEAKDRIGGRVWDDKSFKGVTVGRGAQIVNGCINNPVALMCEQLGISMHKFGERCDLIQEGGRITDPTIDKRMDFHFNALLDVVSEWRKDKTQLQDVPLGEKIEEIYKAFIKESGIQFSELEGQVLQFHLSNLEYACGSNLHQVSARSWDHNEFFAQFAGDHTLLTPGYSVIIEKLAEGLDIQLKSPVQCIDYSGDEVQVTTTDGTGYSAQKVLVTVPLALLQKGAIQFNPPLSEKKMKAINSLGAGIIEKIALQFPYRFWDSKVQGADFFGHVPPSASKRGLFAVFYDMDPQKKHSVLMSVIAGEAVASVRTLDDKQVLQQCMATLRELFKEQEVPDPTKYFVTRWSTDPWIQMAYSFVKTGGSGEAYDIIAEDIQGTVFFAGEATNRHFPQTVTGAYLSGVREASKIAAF

[8] = biological target: T1, Amine oxidase [flavin-containing] A; test: Inhibition of human MAO-A expressed in baculovirus infected BTI insect cells using tyramine as substrate incubated for 30 mins by peroxidase-coupled assay
[9] = biological target: T2, Amine oxidase [flavin-containing] B; test: biochemical
[10] = biological target: T3, Lysine-specific histone demethylase 1A; test: Inhibition of His-tagged full length human LSD1 expressed in Escherichia coli BL21 RIPL Codon Plus (DE3) using ARTK(me2)QTARKSTGGKAPRKQLA as substrate preincubated for 10 mins followed by substrate addition by amplex ultra red and HRP reagent based fluorescence method
Kasumi 1 = test: Antiproliferative activity against human KASUMI-1 cells incubated for 72 hrs by CellTiter-glo assay; format: functional, cell-based; settings: Kasumi 1, 72 h
U-937 = test: Antiproliferative activity against human U-937 cells incubated for 72 hrs by CellTiter-glo assay; format: functional, cell-based; settings: U-937, 72 h
HL-60 = test: Antiproliferative activity against human HL-60 cells incubated for 72 hrs by CellTiter-glo assay; format: functional, cell-based; settings: HL-60, 72 h
OCI-AML-3 = test: Antiproliferative activity against human OCI-AML3 cells incubated for 72 hrs by CellTiter-glo assay; format: functional, cell-based; settings: OCI-AML-3, 72 h
THP-1 = test: Antiproliferative activity against human THP-1 cells incubated for 72 hrs by CellTiter-glo assay; format: functional, cell-based; settings: THP-1, 72 h
MV4-11 [11] = test: Antiproliferative activity against human MV4-11 cells incubated for 72 hrs by CellTiter-glo assay; format: functional, cell-based; settings: MV4-11, 72 h
[12] = biological target: T2, Amine oxidase [flavin-containing] B; test: Inhibition of MAO-B (unknown origin) measured after 60 mins by luciferin-based luminescence assay
[13] = biological target: T3, Lysine-specific histone demethylase 1A
[14] = biological target: T3, Lysine-specific histone demethylase 1A; remark: listed apart in the source
[15] = biological target: T3, Lysine-specific histone demethylase 1A; remark: listed apart in the source
[16] = biological target: T1, Amine oxidase [flavin-containing] A
[17] = biological target: T1, Amine oxidase [flavin-containing] A; test: Inhibition of human MAO-A expressed in baculovirus infected BTI insect cells preincubated for 10 mins followed by substrate addition and measured after 60 mins by luciferin-based luminescence assay
[18] = biological target: T2, Amine oxidase [flavin-containing] B; test: Inhibition of human MAO-B expressed in baculovirus infected BTI insect cells preincubated for 10 mins followed by substrate addition and measured after 60 mins by luciferin-based luminescence assay
[19] = biological target: T1, Amine oxidase [flavin-containing] A; test: biochemical
MAO-A = biological target: T5, MAO-A (Homo sapiens, UniProt P21397); test: Inhibition of human recombinant MAO-A expressed in Pichia pastoris using kynuramine as substrate at 100 uM by horseradish peroxidase coupled-assay relative to control; settings: probe kynuramine
T5 sequence (P21397 whole entry): T1 sequence (P21397 whole entry)

MAO-B = biological target: T6, MAO-B (Homo sapiens, UniProt P27338); test: Inhibition of human recombinant MAO-B expressed in Pichia pastoris using benzylamine as substrate at 100 uM by horseradish peroxidase coupled-assay relative to control; settings: probe benzylamine
T6 sequence (P27338 whole entry): T2 sequence (P27338 whole entry)

MV4-11 [20] = test: Antiproliferative activity against human MV4-11 cells incubated for 48 hrs by CellTiter-Fluor cell viability assay; format: functional, cell-based; settings: MV4-11, 48 h
NB-4 = test: Antiproliferative activity against human NB4 cells incubated for 48 hrs by CellTiter-Fluor cell viability assay; format: functional, cell-based; settings: NB-4, 48 h
LSD1/CoREST complex = LSD1/CoREST complex (Homo sapiens, UniProt O60341); test: Inhibition of LSD1/FLAG-tagged CoREST (unknown origin) expressed in HEK293F cells using diMeK4H3(1 to 21) as substrate preincubated for 5 mins followed by substrate addition measured for 5 mins by horseradish peroxidase-coupled assay
[21] = Inhibition of HDAC1/FLAG-tagged CoREST (unknown origin) expressed in HEK293F cells using p53 (379 to 382 residues) (RHKK(Ac) as substrate incubated for 30 mins by fluorescence method; design: species or system Homo sapiens
[22] = Antiproliferative activity against human SCCIC1 cells after 72 hrs by [3H] thymidine incorporation assay; format: functional, cell-based
[23] = Antiproliferative activity against human MET-1 cells after 72 hrs by [3H] thymidine incorporation assay; format: functional, cell-based

GI50 (HeLa): 6 µM
GI50 (HCT-116): 6 µM
GI50 (PC-3): 6 µM
GI50 (SH-SY5Y): 6 µM
Compound: NC1CC1c1cccc(OCC[C@H](NC(=O)c2ccccc2)C(=O)NCc2ccccc2)c1 (some centres undefined)
GI50 (KYSE-150 cell line): 6 µM

IC50 [4]: 5.9 µM
IC50 [5]: 12 µM
Compound: COc1ccccc1CNC1CC12CCc1ccccc12 (centres undefined)

IC50 [12]: 10.8 µM
IC50 [13]: 0.031 µM
IC50 [14]: 0.003 µM
IC50 [15]: 0.007 µM
IC50 [16]: 12.9 µM
Compound: CN1CCN(C(=O)CN[C@@H]2C[C@H]2c2ccc(F)nc2)CC1

IC50 [17]: > 100 µM
IC50 [18]: > 100 µM
Compound: Cn1cc(C(=O)Nc2ccc([C@@H]3C[C@H]3NCC3CC3)cc2)cn1

inhibition at 100 µM (MAO-A): 37%
inhibition at 100 µM (MAO-B): 8%
IC50 (MV4-11 [20]): 0.4 µM
Compound: NC1CC1c1ccc(NC(=O)c2ccc(NC(=O)OCc3ccccc3)cc2)cc1 (centres undefined)
IC50 (NB-4): 0.6 µM

Further lines, the compound ahead of its results:

Compound: CCN(CC)S(=O)(=O)c1ccc([C@H]2C[C@@H]2NCc2ccccc2)cc1
IC50 [1]: 0.525 µM
IC50 [2]: 0.702 µM
IC50 (MV4-11 [3]): 15.4 µM

Compound: N[C@H]1CCN(C(=O)CNC2CC2c2cc(F)cc(F)c2OCc2ccccc2)C1 (some centres undefined)
Ki [6]: 0.56 µM
Ki [7]: > 250 µM
Ki [8]: > 250 µM
Ki [9]: > 250 µM

Compound: COc1ccc(Br)cc1CNC1CC12CCc1ccccc12 (centres undefined)
IC50 [4]: 3.7 µM
IC50 [5]: 1.2 µM

Compound: N[C@@H]1C[C@H]1c1ccc(C(=O)NCc2ccccc2)cc1
IC50 [10]: 0.3 µM
IC50 (Kasumi 1): 0.03 µM
IC50 (U-937): 1.6 µM
IC50 (HL-60): 1.7 µM
IC50 (OCI-AML-3): 1.8 µM
IC50 (THP-1): 0.1 µM
IC50 (MV4-11 [11]): 0.18 µM

Compound: CN1CCN(C(=O)CNC2CC2c2cc(F)cc(F)c2OCc2ccccc2)CC1 (centres undefined)
Ki [7]: > 250 µM
Ki [8]: > 250 µM
Ki [9]: > 250 µM

Compound: O=C(N[C@@H](CCCCNC1CC1c1ccccc1)C(=O)NCc1ccccc1)c1ccc(-c2ccccc2)cc1 (some centres undefined)
GI50 (HeLa): 10 µM
GI50 (SH-SY5Y): > 3.3 µM
IC50 [19]: 87 µM

Compound: Nc1ccccc1NC(=O)c1ccc(CCCC(=O)Nc2ccc(C3CC3N)cc2)cc1 (centres undefined)
IC50 (LSD1/CoREST complex): 1.8 µM
IC50 [21]: 0.23 µM
IC50 [22]: 0.041 µM
IC50 [23]: 0.006 µM
